Data as given in US8637099B2, “Use of Vitex agnus castus extracts for preparing a medicament” (Max Zeller Sohne AG, priority 2007, dated 2014).

System: Fisher rats
Assay: Tele-Stereo-EEG: field potentials (spectral power) in freely moving rats
Format: in vivo, rat
Details: 4 mg i.p.

SMILES: OC1(c2ccc(Cl)cc2)CCN(Cc2c[nH]c3ccccc23)CC1 [L-741,626]
- changes in the EEG power spectrum: strong decrease of spectral power mainly within the alpha2 waves
